Reference: publication PMC4492732 (Pharmacology Research & Perspectives, 2015)
pIC50: −log10 of the molar value.

How the values were obtained:
[1] = biological target: α7-nicotinic acetylcholine receptor; conditions: ref Moaddel et al. [2013]; cited from earlier work
[2] = organic phase relative to aqueous phase; ref Leung and Baillie ([1986]); cited from earlier work
[3] = rat, ref Leung and Baillie ([1986]), cited from earlier work; for increased spontaneous locomotor activity: postanesthetic recovery phase
Incubation of = format: in vitro ADME, Wistar rat; conditions: 0.1, 1 and 10 μmol/L; 1 mg/mL S9, NADPH; up to 120 min; data not shown
[4] = after i.v. (R,S)-Ket; ref Cohen et al. [1973]; cited from earlier work
[5] = Brain tissue concentrations of Ket and; conditions: for Brain tissue concentration 10 min / Brain tissue concentration 20 min / Brain tissue concentration 60 min / ratio of brain tissue concentration: plasma concentration 10 min / ratio of brain tissue concentration: plasma concentration 20 min / ratio of brain tissue concentration: plasma concentration 60 min: after i.v. 20 mg/kg (R)-Ket; for Brain tissue concentration 10 min / Brain tissue concentration 20 min / Brain tissue concentration 60 min: n = 3, ±SD
[6] = Plasma concentrations of Ket and; format: in vivo, Wistar rat; conditions: after i.v. 20 mg/kg (R)-Ket, n = 3, ±SD
[7] = Pharmacokinetic parameters for; format: in vivo, Wistar rat; conditions: metabolite after single i.v. 40 mg/kg (R,S)-Ket

Compound: NC1(c2ccccc2Cl)CCC=CC1=O (racemic) [(R,S)-DHNK, (R,S)-dehydronorketamine]
- pIC50 [1]: > 7.00

Compound: CNC1(c2ccccc2Cl)CCCCC1=O (racemic) [(R,S)-Ket, ketamine, reference compound]
- relative hydrophobicity from partition coefficients [2]: slightly more hydrophobic
- increased spontaneous locomotor activity [3]: 25 min
- duration of anesthesia [3]: 7 min
- Ket metabolites formed in incubates (Incubation of): did not contain any known Ket metabolites
- time to peak brain tissue concentrations [4]: less than 1 min

Compound: NC1(c2ccccc2Cl)CCCCC1=O (racemic) [(R,S)-norKet, (R,S)-norketamine]
- increased spontaneous locomotor activity [3]: 7 min
- duration of anesthesia [3]: 3 min

Compound: N[C@@]1(c2ccccc2Cl)CCC[C@@H](O)C1=O [(2R,6R)-HNK, (2R,6R)-hydroxynorketamine]
- Brain tissue concentration 10 min [5]: 274 ± 47 ng/g tissue
- Brain tissue concentration 20 min [5]: 191 ± 50 ng/g tissue
- Brain tissue concentration 60 min [5]: 156 ± 34 ng/g tissue
- Plasma concentration 10 min [6]: 345 ± 115 ng/mL
- Plasma concentration 20 min [6]: 316 ± 58 ng/mL
- Plasma concentration 60 min [6]: 200 ± 24 ng/mL

Compound: N[C@@]1(c2ccccc2Cl)CCC[C@H](O)C1=O [(2R,6S)-HNK]
- ratio of brain tissue concentration: plasma concentration 10 min [5]: (0.6)
- Brain tissue concentration 10 min [5]: 141 ± 20 ng/g tissue
- ratio of brain tissue concentration: plasma concentration 20 min [5]: (0.8)
- Brain tissue concentration 20 min [5]: 78 ± 37 ng/g tissue
- ratio of brain tissue concentration: plasma concentration 60 min [5]: (1.4)
- Brain tissue concentration 60 min [5]: 48 ± 28 ng/g tissue
- average ratio of brain tissue concentration to plasma concentration ([5]; after i.v. (S)-Ket or (R)-Ket, respectively, over the first 20 min post administration): ~1
- Plasma concentration 10 min [6]: 222 ± 29 ng/mL
- Plasma concentration 20 min [6]: 96 ± 6 ng/mL
- Plasma concentration 60 min [6]: 35 ± 6 ng/mL

Compound: N[C@@]1(c2ccccc2Cl)CCC[C@@H](O)C1=O [(2S,6S;2R,6R)-HNK, (2S,6S;2R,6R)-hydroxynorketamine]
- t1/2 [7]: 9.5 ± 5.4 h
- pIC50 [1]: > 7.00
- relative hydrophobicity from partition coefficients [2]: significantly less lipophilic
- increased spontaneous locomotor activity [3]: no effect
- duration of anesthesia [3]: no effect

Compound: CN[C@@]1(c2ccccc2Cl)CCCCC1=O [(R)-Ket, (R)-ketamine, reference compound]
- ratio of brain tissue concentration: plasma concentration 10 min [5]: (4.8)
- Brain tissue concentration 10 min [5]: 16,365 ± 1931 ng/g tissue
- ratio of brain tissue concentration: plasma concentration 20 min [5]: (6.1)
- Brain tissue concentration 20 min [5]: 8715 ± 4433 ng/g tissue
- ratio of brain tissue concentration: plasma concentration 60 min [5]: (10.5)
- Brain tissue concentration 60 min [5]: 5224 ± 3391 ng/g tissue
- Plasma concentration 10 min [6]: 3430 ± 400 ng/mL
- Plasma concentration 20 min [6]: 1420 ± 103 ng/mL
- Plasma concentration 60 min [6]: 498 ± 116 ng/mL
